Reference: US20240252658A1, “BIFUNCTIONAL PROTAC-TYPE COMPOUNDS TARGETING PXR, METHOD FOR PREPARING SAME AND THERAPEUTIC USE THEREOF” (Centre National de la Recherche Scientifique, priority 2021, published 2024)

Key:
PXR [1] = test: CYP3A4 mRNA expression by RT-qPCR in LS174T cells; type: cell-based; conditions: 5 μM, 48 h, with rifampicin 5 μM
Description: . After lysis of the cells and purification of the total RNAs (Qiagen RNAeasy), the complementary DNAs were prepared (SuperScript II in the presence of random primers of 6 nucleotides, Invitrogen). The expression of CYP3A4 mRNA and RPLO and actin housekeeping genes was measured by RT-qPCR on an LC480 apparatus (Roche) in the presence of SyberGreen (Millipore). The relative expression levels were calculated according to the RQ=Relative quantification=2-ΔΔCt method, the untreated cells serving as a calibrator set to 1. […]

PXR [2] = test: CYP3A4 protein expression by western blotting in LS174T cells; type: cell-based; design: dose or concentration left out as unconfirmed; conditions: 48 h
Description: The LS174T cells were treated for 48 h with […] JMV7048 in the presence or absence of rifampicin (PXR ligand) at […] final. After lysis of the cells (RIPA+antiproteases), the proteins were purified and assayed before being deposited (90 μg) on 10% SDS-PAGE gel. […] The intensities of the signals were measured by a camera (BioRad MP Touch).

LS174T = test: Cell viability, Sulforhodamine B, LS174T; type: cell-based; conditions: LS174T line, increasing concentrations, 72 h
Description: (§1) The effect of PROTACs on cell viability has been tested on various lines CRC1, HT29 and LS174T. The cells were incubated in the presence of increasing concentrations of molecules for 72 h before being fixed and marked by Sulforhodamine B (Sigma). After washing and lysis of the cells, the incorporated colorant released by the cells is directly proportional to the cell biomass. It is measured at […] by a 96-well plate spectrophotometer (Tecan). The signal obtained for the untreated cells is set at 100%.

HT29 cells [3] = test: Cell viability, Sulforhodamine B, HT29; type: cell-based; conditions: increasing concentrations, 72 h
Description: as §1

CRC1 = test: Cell viability, Sulforhodamine B, CRC1; type: cell-based; conditions: CRC1 protoculture, increasing concentrations, 72 h
Description: as §1

CRC1 cells = test: Aldefluor marking of cancer stem cells, CRC1; type: cell-based; conditions: 5 μM, 48 h, compared to untreated cells
Description: (§2) The effects of the PROTACs on the survival and self-renewal of colic cancer stem cells were studied in vitro on the HT29 line or cancer cells isolated from patients (CRC1). The cells were treated with or without 5 μM PROTACs for 48 h before being analyzed: Aldefluor marking, enzymatic activity preferentially present in cancer stem cells (FIG. 10A); formation of tumorspheres under aseric and non-adherent conditions (FIG. 10B), and finally resistance to chemotherapy (FIGS. […] and 10D).
(§3) The tumorspheres with a diameter of more than 50 μM were counted 10 days after treatment and culturing of 200 cells per well (previously treated with poly2Hema in order to prevent any cell adhesion) in 100 μL of depleted BCS medium. These culture conditions allow only the survival of cancer stem cells. FIGS. 10C and 10D show the effects of the PROTACs JMV7048 and JMV7965 on survival (10C) and the ability to form tumorspheres (10D) of the HT29 cells maintained in the presence of different concentrations of 5-FU and SN38 (Folfiri 1X=50 μg 5-FU+500 nM SN38) and cultured in 100 μL of depleted BCS medium in dishes pretreated with poly2Hema in order to prevent any cell adhesion. The tumorspheres with a diameter of more than 50 μM were counted 10 days after seeding 200 cells/well.

HT29 cells [4] = test: Tumorsphere formation (Sphere Forming Cells), HT29; type: cell-based; conditions: 5 μM, 48 h, spheres counted after 10 days
Description: as §2, §3

HT29 cells [5] = test: Survival and chemoresistance of cancer stem cells in colon cancer cell lines; type: cell-based; conditions: 5 μM for 2 days, 5-FU and SN38 (Folfiri)
Description: as §2, §3

PXR protein [6] = molecular target: T1, PXR protein (Homo sapiens, UniProt O75469); test: PXR degradation in LS174T cells by in vitro western blotting; type: cell-based; design: endogenous in cells; host or cells: LS174T; conditions: for expression level of the PXR protein: 5 μM, 24 h of treatment
T1 sequence (O75469 1-434): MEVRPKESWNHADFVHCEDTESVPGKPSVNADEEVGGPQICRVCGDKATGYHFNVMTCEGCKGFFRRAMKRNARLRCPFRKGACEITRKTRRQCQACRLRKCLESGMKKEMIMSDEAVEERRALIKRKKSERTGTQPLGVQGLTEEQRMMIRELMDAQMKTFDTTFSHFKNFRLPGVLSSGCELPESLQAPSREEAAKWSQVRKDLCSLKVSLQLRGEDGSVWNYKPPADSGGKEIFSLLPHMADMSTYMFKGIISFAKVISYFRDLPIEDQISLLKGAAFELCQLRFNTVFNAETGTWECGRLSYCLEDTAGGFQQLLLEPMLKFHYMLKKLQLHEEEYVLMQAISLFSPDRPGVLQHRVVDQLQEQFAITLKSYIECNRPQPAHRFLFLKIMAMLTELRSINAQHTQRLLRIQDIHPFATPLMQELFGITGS
Description: The effect of the PROTACs on the expression level of the PXR protein was studied by western blotting. The LS174T cells were […] in the absence or presence of 50 nM of an siRNA targeting PXR (siPXR: NR112 Silencer, Thermofischer) or treated by the PROTACs. After lysis of the cells (RIPA+antiproteases), the proteins were purified and assayed before being deposited ([…]) on 10% SDS-PAGE gel. […] The intensities of the signals were measured by a camera (BioRad MP Touch). […] FIGS. 6D and 6E illustrate the effect of JMV7048 on the expression level of PXR based on the treatment time (maximum effect reached after 3 h of treatment) and the concentration used (decrease dependent on the dose, with a maximum effect observed from 500 nM).

PXR protein [7] = molecular target: T1, PXR protein; test: Importance of the proteasome pathway for PXR degradation, western blotting in LS174T cells; type: cell-based; design: endogenous in cells; host or cells: LS174T; conditions: 24 hours
Description: The involvement of the proteasome pathway in the effects of PROTACs on the expression level of the PXR protein was studied by western blotting. The LS174T cells were treated for 24 hours with JMV7048 in the presence or absence of the […] (MLN4924) or the proteasome inhibitor (Bortezomib).

[8] = molecular target: T2, PXR ligand binding domain (LBD) (Homo sapiens, UniProt O75469); test: LanthaScreen TR-FRET PXR competitive binding assay; conditions: displacement of fluorescent reference ligand, 1:30 hours at room temperature, read-out: affinity for PXR
T2 construct: purchased Invitrogen
T2 sequence (O75469 146-433 limits assumed): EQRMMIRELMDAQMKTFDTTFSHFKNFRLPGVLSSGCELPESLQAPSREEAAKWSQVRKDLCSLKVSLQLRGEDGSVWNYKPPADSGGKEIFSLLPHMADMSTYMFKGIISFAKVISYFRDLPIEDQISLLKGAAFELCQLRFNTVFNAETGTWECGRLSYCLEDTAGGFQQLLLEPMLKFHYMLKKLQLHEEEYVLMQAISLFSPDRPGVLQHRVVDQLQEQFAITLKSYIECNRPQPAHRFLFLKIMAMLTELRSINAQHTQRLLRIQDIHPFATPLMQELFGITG
Description: The molecules were incubated for 1:30 hours at room temperature with the PXR LBD in the presence of a fluorescent reference ligand. The displacement of the fluorescent ligand caused by the prePROTAC or the PXR SR12813 ligand was measured by reading emissions at 520 nm and 495 nm after excitation at 337 nm on a PHERA-Star apparatus (BMG LABTECH).

Row | SMILES | effect on expression of CYP3A4 mRNA induced by rifampicin (PXR [1]) | toxicity (cell viability) (LS174T) | percentage of ALDH-positive cells (CRC1 cells) | expression level of the PXR protein (PXR protein [6]) | other results
1 | Cc1cc(C)c(S(=O)(=O)Nc2ccc3c(c2)nc(CCCCCCCNC(=O)CCCCCN2CCN(c4ccc5c(c4)C(=O)N(C4CCC(=O)NC4=O)C5=O)CC2)n3Cc2ccccc2)c(C)c1 (centres unmarked) [JMV7048] | significantly reduce the induction of CYP3A4 | absence of toxicity | significantly reduce the percentage of ALDH-positive cells | significantly reduce the expression level of the PXR protein | effect on induction of the CYP3A4 enzyme mediated by rifampicin (PXR [2]): reduce the induction of the CYP3A4 enzyme; cell viability (HT29 cells [3]): does not affect the viability; cell viability (CRC1): does not affect the viability; number of cells capable of surviving anoikis and forming tumorspheres (Sphere Forming Cells) (HT29 cells [4]): significantly reduce the number of HT29 cells; survival and chemoresistance of stem cells (HT29 cells [5]): significantly reduces the survival and chemoresistance of stem cells; treatment time at which maximum effect on PXR expression level is reached (PXR protein [6]): 3 h; concentration from which maximum effect on PXR expression level is observed (PXR protein [6]; decrease dependent on the dose): ≥ 500 nM; decrease in PXR expression level with MLN4924 or Bortezomib (PXR protein [7]; with or without MLN4924 or Bortezomib): reverted by the CRBN ubiquitin ligase inhibitors (MLN4924, FIG. 8A) or by an inhibitor of the 26S proteasome
2 | Cc1cc(C)c(S(=O)(=O)Nc2ccc3c(c2)nc(CCCCCCCNC(=O)CCCCCCN2CCN(c4ccc5c(c4)C(=O)N(C4CCC(=O)NC4=O)C5=O)CC2)n3Cc2ccccc2)c(C)c1 (centres unmarked) [JMV7505] | – | absence of toxicity | significantly reduce the percentage of ALDH-positive cells | significantly reduce the expression level of the PXR protein | –
3 | Cc1cc(C)c(S(=O)(=O)Nc2ccc3c(c2)nc(CCCCCCCNC(=O)CN2CCC(CN4CCN(c5ccc6c(c5)C(=O)N(C5CCC(=O)NC5=O)C6=O)CC4)CC2)n3Cc2ccccc2)c(C)c1 (centres unmarked) [JMV7965] | significantly reduce the induction of CYP3A4 | – | significantly reduce the percentage of ALDH-positive cells | significantly reduce the expression level of the PXR protein | effect on induction of the CYP3A4 enzyme mediated by rifampicin (PXR [2]): reduce the induction of the CYP3A4 enzyme; number of cells capable of surviving anoikis and forming tumorspheres (Sphere Forming Cells) (HT29 cells [4]): significantly reduce the number of HT29 cells; survival and chemoresistance of stem cells (HT29 cells [5]): significantly reduces the survival and chemoresistance of stem cells
4 | Cc1cc(C)c(S(=O)(=O)Nc2ccc3c(c2)nc(CCCCCCCNC(=O)CCCCCCN2CCN(c4ccc(C(=O)NC5CCC(=O)NC5=O)cc4)CC2)n3Cc2ccccc2)c(C)c1 (centres unmarked) [JMV7605] | – | absence of toxicity | – | significantly reduce the expression level of the PXR protein | –
5 | Cc1cc(C)c(S(=O)(=O)Nc2ccc3c(c2)nc(CCCCCCCN)n3Cc2ccccc2)c(C)c1 [JMV6944, N-[2-(7-aminoheptyl)-1-benzyl-1H-1,3-benzodiazol-5-yl]-2,4,6-trimethylbenzene-1-sulfonamide] | additive effect on the expression of CYP3A4 mRNA | – | – | – | Kd [8]: 18.4 nM
6 | Cc1cc(C)c(S(=O)(=O)Nc2ccc3c(c2)nc(CCCCCCCNC(=O)CCCCCN2CCN(C4CCC5C(=O)N(C6CCC(=O)N(C)C6=O)C(=O)C5C4)CC2)n3Cc2ccccc2)c(C)c1 (centres unmarked) [JMV7159] | additive effect on the expression of CYP3A4 mRNA | – | – | – | expression level of the PXR protein (PXR protein [7]): does not cause a decrease in the expression level of PXR
7 | Cc1cc(C)c(S(=O)(=O)Nc2ccc3c(c2)nc(CCCCCCCNC(=O)CCCCCCCN2CCN(c4ccc5c(c4)C(=O)N(C4CCC(=O)NC4=O)C5=O)CC2)n3Cc2ccccc2)c(C)c1 (centres unmarked) [JMV7506] | – | – | significantly reduce the percentage of ALDH-positive cells | significantly reduce the expression level of the PXR protein | –
